Laboratory results from article PMC7901650, “Garcinoic Acid Is a Natural and Selective Agonist of Pregnane X Receptor” (Journal of Medicinal Chemistry, 2020).

What was measured:
PPARs = experiment: AlphaScreen nuclear receptor panel, PPARs; type: biochemical, human
Excerpt: Ligand binding activity of GA (1) was explored via AlphaScreen technology over a panel of NRs that, along with hPXR (Figure 1A), included major human endocrine and metabolic receptors, such as the retinoid X receptor (RXR), constitutive androstane receptor (CAR), farnesoid X receptor (FXR), vitamin D receptor (VDR), liver X receptor (LXR) forms α and β, and the PPAR isoforms α, δ, and γ (see Figure S1). GA (1) was compared to its analogue δ-tocotrienol (5), the vitamers 3 and 4, their short-chain metabolites (SCMs) α-CEHC (10) and γ-CEHC (11), and the LCMs 2 and 8 (Chart 1). The test was performed in the presence of reference standard agonists for the different NRs.
The activity of nuclear receptors was determined using AlphaScreen technology, a recruitment coactivator assay previously described.[56]
(A) The test was carried out at 10 μM compound final concentration. Ligand binding to nuclear receptors was expressed as luminescence units. […] Vehicle was assessed to obtain a measure of background signal (basal evaluation). […] In presence of the ligand, the nuclear receptor LBD undergoes conformational changes, binds to the coactivator and the chemical energy is transferred from donor to acceptor beads in order to produce a signal, i.e. luminescence; in this case the compounds behaves as agonist, changing the conformation of the receptor to recruit the coactivator. […]

HepaRG cells = experiment: PXR protein expression in HepaRG cells; type: cell-based; details: 24 h, 1 to 25 μM, compared with HepG2
Description: HepG2 (human hepatoma cell line; ATCC HB-8065, Manassas, VA) and HepaRG (HPRGC10, Thermo Fisher Scientific) cells were maintained in culture as previously described.[47] Experiments were performed between passages 2 and 10. Cell viability, clonogenic activity, and apoptotic cell death were assessed as previously described (see Figure S2).[58],[59] HT29 human colorectal adenocarcinoma cells (ATCC HTB-38) and its mucous-secreting HT29-MTX subclone (Sigma-Aldrich) were used as intestinal cell models. HT29 cells were cultured in RPMI (Invitrogen; Life Technologies) containing 10% FBS (v/v) and 1% (v/v) L-glutamine. HT29-MTX cells (from Sigma-Aldrich) were cultured in DMEM supplemented with 2 mM glutamine, 1% nonessential amino acids, and 10% FBS. […]
Cells were harvested and lysed in ice-cold cell lysis buffer (Cell Signaling Technology) and 20 μL/mL protease inhibitor cocktail (Roche). […] After incubation in ice for 1 h and centrifugation (12 000 rpm for 20 min at 4 °C), the supernatant was recovered, and total proteins were quantified by the BCA assay kit (Pierce, Thermo Fisher Scientific). […] The band intensity was analyzed using Gel Pro analyzer Software. […]
PXR protein was assessed by immunoblot (10 µg total protein loading) in HepaRG cells treated for 24 hrs with GA at concentrations between 1 and 25 μM (A). […]

For C/C(=C\CC/C(C)=C/CC[C@]1(C)CCc2cc(O)cc(C)c2O1)CC/C=C(\C)C(=O)O [GA (1), (2E,6E,10E)-13-[(2R)-6-hydroxy-2,8-dimethyl-chroman-2-yl]-2,6,10-trimethyltrideca-2,6,10-trienoic acid], the “Response on PPARs” value (PPARs) was “No response” and the PXR protein response (HepaRG cells) was “Even higher”.
